Results reported in EP1282414B1, “FELBAMATE DERIVED COMPOUNDS FOR TREATING NEUROPATHIC PAIN” (University of Virginia Patent Foundation, priority 2000, dated 2001).

What was measured:
[1] = LC/MS quantification of felbamate and metabolites in patient urine; format: in vivo, patients
Procedure: Preparation of Patient Urine Samples. Urine samples were obtained from patient volunteers undergoing felbamate therapy for control of epileptic seizures and under the care of physicians at either the University of Virginia (Charlottesville, Virginia) or the EpiCare Center (Memphis, Tennessee). Urine samples were diluted four fold with distilled water (this was done prior to overnight shipment for samples requiring shipping) and placed in an orbital shaking water bath for ∼ 20 min at 37 °C to insure that all of the analytes were in solution. 500 µL of this diluted sample were removed and added to 100 µL of a mixture of the four deuterated internal standards. […] After mixing, 200 µL were removed and added to 20 µL of 20% H0Ac. This acidified sample was then applied to a preconditioned Waters "Oasis" solid phase extraction cartridge (Waters Corp., Woburn, MA). The cartridge was washed with 2 mL 0.1% HOAc followed by 3 mL 10% CH3CN/90% water (0.1 %) H0Ac. The analytes and internal standards were then eluted with 3 mL 30% CH3CN:70% (0.1 %) HOAc. This fraction was then analyzed by LC/MS without further manipulation.
LC/MS Analysis of Urine Samples for Metabolite Quantification. LC/MS analysis was performed using a Waters 2690 HPLC equipped with an autosampler and a Waters 486 tunable absorbance detector. This LC system was interfaced to a Finnigan MAT LCQ ion trap mass spectrometer. A 10 µL injection of the fraction from solid phase extraction was applied to a Waters Symmetry C8 reversed phase column (33% CH3CN:67% (0.1%) H0Ac, 2.1 mm x 150 mm, 0.2 mL/min). The post-column flow was directed through a Waters 486 tunable absorbance detector (10 µL flow cell, λ = 214 nm) which was used for qualitative assessment of the sample and not for quantitation. The flow was then directed to the electrospray ionization source of the LCQ.
The mass spectrometer was programmed to collect data in full scan mode from 190 - 320 m/z and was tuned to maximize the signal from the analytes under the HPLC conditions. The values for the electrospray parameters were as follows: heated capillary temperature = 180°C; spray voltage = 5.6 kV; capillary voltage = 20 V; sheath gas (nitrogen) flow rate = 70; auxillary gas (helium) flow rate = 20. The automatic gain control (AGC) was on with a target ion count of 7 x 10^7 ions and a maximum ion inject time of 150 ms. […]
Quantification was achieved by integration of the peaks from the mass chromatogram for each analyte using software (Navigator 1.1) provided with the LCQ. The area (expressed as counts x seconds) of the peak for each metabolite was compared to the area for its corresponding deuterated internal standard. As the absolute amount of internal standard added per mL of urine was known, the absolute amount of analyte per mL of urine could be determined.

[2] = patients on felbamate monotherapy; cited from earlier work
[3] = test system: painful peripheral neuropathy; settings: rat model of painful peripheral neuropathy; cited from earlier work
[4] = Stability of oxazinane-dione at relevant pH; format: physicochemical
Excerpt: It is anticipated, therefore, that the oxazinane-dione 9 is responsible for some aspects of felbamate's efficacy in vivo. As patients undergoing felbamate therapy for seizure control ingest large quantities of felbamate (grams per day), even a 1 - 2% conversion to a pharmacologically active metabolite could have significant effects. […] In light of the possibility that the oxazinane-dione 9 could be a metabolic precursor to the major human metabolite, acid carbamate 4, it may be formed in significant quantities (the acid carbamate was reported to represent ∼ 12% of a dose). […] Also included in this class are cyclic congeners 21 and 22, which may be formed from felbamate derivatives (see scheme II). Also included is 20, which may be an unknown metabolite of felbamate 1 and could be produced from felbamate derivative 12 by the cytochrome P450 metabolism.

[5] = urine of patients on felbamate therapy, 34 samples

CC(=O)N[C@@H](CSCC(CO)c1ccccc1)C(=O)O (stereo partly shown) [Nac-alcohol]
average ratio of Nac-alcohol to Nac-acid [1, 5]: 6.4 | ratio of Nac-alcohol to Nac-acid (range over patients) [1, 5]: 2- 14

NC(=O)OCC(COC(N)=O)c1ccccc1 [felbamate, 2-phenyl-1,3-propanediol dicarbamate]
Weight loss [2]: 4-5% | amount of felbamate excreted per mL of urine ([1]; patient with total daily dose of 3.6 grams of felbamate (lowest of range)): 819 ± 8.5 nmol/mL | amount of felbamate excreted per mL of urine ([1]; patient with total daily dose of 6.0 grams of felbamate (highest of range)): 10,064 ± 515 nMoles/mL | effect on measures of pain (in words) [3]: significant reductions in all measures of pain

O=C1NC(=O)C(c2ccccc2)CO1 (stereo not shown) [oxazinane-dione 9]
stability at relevant pH (in words) [4]: unstable
